Experimental data: patent US20050145571A1, “Extraction and recovery of ions from a solution” (priority 2001, published 2005)

Details: at 23° C

In the case of `O=S(=O)([O-])C(F)(F)C(F)(F)C(F)(F)C(F)(F)C(F)(F)C(F)(F)C(F)(F)C(F)(F)F.[K+]` [KPFS-8, potassium PFS-8], the solubility is reported as no more than 1 mg/mL.
